The source of these data is patent publication US20200347033A1, “MODULATORS OF THE INTEGRATED STRESS PATHWAY” (Calico Life Sciences LLC, priority 2017, published 2020).

In this test the test system is HEK293T cells carrying the ATF4 luciferase reporter. In words: ATF4-Luc assay (in vitro model of vanishing white matter disease). The class given is cell-based, human. The settings on record: HEK293T cells with ATF4 5'-UTR firefly luciferase reporter, 1 μg/mL tunicamycin, 7 hours, One Glo luminescence. Here is the method:
In order to test exemplary compounds of the invention in a cellular context, a stable VWMD cell line was first constructed. The ATF4 reporter was prepared by fusing the human full-length ATF4 5′-UTR (NCBI Accession No. BC022088.2) in front of the firefly luciferase (FLuc) coding sequence lacking the initiator methionine as described in Sidrauski et al (eLife 2013). The construct was used to produce recombinant retroviruses using standard methods and the resulting viral supernatant was used to transduce HEK293T cells, which were then subsequently selected with puromycin to generate a stable cell line.
HEK293T cells carrying the ATF4 luciferase reporter were plated on polylysine coated 384-well plates (Greiner Bio-one) at 30,000 cells per well. Cells were treated the next day with 1 μg/mL tunicamycin and 200 nM of a compound of Formula (I) for 7 hours. Luminescence was measured using One Glo (Promega) as specified by the manufacturer. Cells were maintained in DMEM with L-glutamine supplemented with 10% heat-inactivated FBS (Gibco) and Antibiotic-Antimycotic solution (Gibco).
Table 2 below summarizes the EC50 data obtained using the ATF4-Luc assay for exemplary compounds of the invention.
A general note: In a reporter assay the amount or activity of a reporter protein is the signal.

As usually defined, the EC50 is the concentration giving half of the maximal effect.

As to “2-(4-chloro-3-fluorophenoxy)-N-[3-(5-chloro-1-hydroxy-3-oxo-1,3-dihydro-2H-isoindol-2-yl)bicyclo[1.1.1]pentan-1-yl]acetamide and 2-(4-chloro-3-fluorophenoxy)-N-[3-(5-chloro-3-hydroxy-1-oxo-,3-dihydro-2H-isoindol-2-yl)bicyclo[1.1.1]pentan-1-yl]acetamide [Compound 153]”, the EC50 was > 2000 nM.
Turning to `O=C(COc1ccc(Cl)c(F)c1)NC12CC(N3CC[C@@H](Oc4ccc(Cl)cc4)C3=O)(C1)C2` (single isomer, unassigned) [Compound 102], the EC50 (Homo sapiens, HEK-293T) is 250 to 1000 nM.
`O=C(COc1ccc(Cl)c(F)c1)NC12CC(N3CC[C@H](Oc4ccc(Cl)cc4)C3=O)(C1)C2` (single isomer, unassigned) [Compound 103]: the EC50 (Homo sapiens, HEK-293T) was 50 to 250 nM.
The same measure, in the same setting: for `O=C(COc1ccc(Cl)c(F)c1)NC12CC(N3C(=O)c4cc(Cl)ccc4[C@@H]3O)(C1)C2` (single isomer, unassigned) [Compound 148, 2-(4-chloro-3-fluorophenoxy)-N-{3-[(1)-5-chloro-1-hydroxy-3-oxo-1,3-dihydro-2H-isoindol-2-yl]bicyclo[1.1.1]pentan-1-yl}acetamide] the value was > 2000 nM; for `O=C(COc1ccc(Cl)c(F)c1)NC12CC(N3C(=O)c4ccc(Cl)cc4[C@H]3O)(C1)C2` (single isomer, unassigned) [Compound 149], 250 to 1000 nM; for `O=C(COc1ccc(Cl)c(F)c1)NC12CC(N3C(=O)c4ccc(Cl)cc4[C@@H]3O)(C1)C2` (single isomer, unassigned) [Compound 150], 1000 to 2000 nM.
In the case of `O=C(COc1ccc(Cl)c(F)c1)NC12CC(N3C(=O)c4cc(Cl)ccc4[C@H]3O)(C1)C2` (single isomer, unassigned) [Compound 151], under “Homo sapiens, HEK-293T”, the EC50 is > 2000 nM.
In the case of `O=C(COc1ccc(Cl)c(F)c1)NC12CCC(N3CC[C@@H](c4ccc(Cl)cc4)C3=O)(CC1)C[C@@H]2O` (single isomer, unassigned) [Compound 154], the EC50 (Homo sapiens, HEK-293T) lay within 250 to 1000 nM.
With `O=C(COc1ccc(Cl)c(F)c1)NC12CCC(N3CC[C@H](c4ccc(Cl)cc4)C3=O)(CC1)C[C@@H]2O` (single isomer, unassigned) [Compound 155], where the note is “Homo sapiens, HEK-293T”, the EC50 is < 50 nM.
For the compound `O=C(COc1ccc(Cl)c(F)c1)NC12CC(N3C[C@H](c4ccc(Cl)c(F)c4)OC3=O)(C1)C2` (single isomer, unassigned) [Compound 156], the concentration for a half-maximal effect (EC50) (Homo sapiens, HEK-293T) fell in the range of 250 to 1000 nM.
Regarding `O=C(COc1ccc(Cl)c(F)c1)NC12CC(N3C[C@@H](c4ccc(Cl)c(F)c4)OC3=O)(C1)C2` (single isomer, unassigned) [Compound 157], the half-maximal effective concentration (EC50) (Homo sapiens, HEK-293T) lay in the range of 50 to 250 nM.
Same read-out and setting: for `O=C(COc1ccc(Cl)c(F)c1)NC12CC(N3CCC(Oc4ccc(Cl)c(F)c4)C3=O)(C1)C2` (stereo not drawn) [Compound 100, 2-(4-chloro-3-fluorophenoxy)-N-{3-[3-(4-chloro-3-fluorophenoxy)-2-oxopyrrolidin-1-yl]bicyclo[1.1.1]pentan-1-yl}acetamide] the value was 50 to 250 nM.
For the compound `O=C(COc1ccc(Cl)c(F)c1)NC12CC(N3CCC(Oc4ccc(C(F)(F)F)nc4)C3=O)(C1)C2` (stereo not drawn) [Compound 101, 2-(4-chloro-3-fluorophenoxy)-N-[3-(2-oxo-3-{[6-(trifluoromethyl)pyridin-3-yl]oxy}pyrrolidin-1-yl)bicyclo[1.1.1]pentan-1-yl]acetamide], the concentration giving a half-maximal response (EC50) (Homo sapiens, HEK-293T) was in the range of 250 to 1000 nM.
In the case of `Cc1nn(C)c(C)c1OC1CCN(C23CC(NC(=O)COc4ccc(Cl)c(F)c4)(C2)C3)C1=O` (stereo not drawn) [Compound 104, 2-(4-chloro-3-fluorophenoxy)-N-(3-{2-oxo-3-[(1,3,5-trimethyl-1H-pyrazol-4-yl)oxy]pyrrolidin-1-yl}bicyclo[1.1.1]pentan-1-yl)acetamide], the concentration giving a half-maximal response (EC50) (Homo sapiens, HEK-293T) is > 2000 nM.
Still for that read-out and setting: for `Cc1cc(OC2CCN(C34CC(NC(=O)COc5ccc(Cl)c(F)c5)(C3)C4)C2=O)no1` (stereo not drawn) [Compound 105, 2-(4-chloro-3-fluorophenoxy)-N-(3-{3-[(5-methyl-1,2-oxazol-3-yl)oxy]-2-oxopyrrolidin-1-yl}bicyclo[1.1.1]pentan-1-yl)acetamide] the value was > 2000 nM; for `Cn1cc(OC2CCN(C34CC(NC(=O)COc5ccc(Cl)c(F)c5)(C3)C4)C2=O)cn1` (stereo not drawn) [Compound 106, 2-(4-chloro-3-fluorophenoxy)-N-(3-{3-[(1-methyl-H-pyrazol-4-yl)oxy]-2-oxopyrrolidin-1-yl}bicyclo[1.1.1]pentan-1-yl)acetamide], > 2000 nM; for `Cn1nc(C(F)(F)F)cc1OC1CCN(C23CC(NC(=O)COc4ccc(Cl)c(F)c4)(C2)C3)C1=O` (stereo not drawn) [Compound 107, 2-(4-chloro-3-fluorophenoxy)-N-[3-(3-{[1-methyl-3-(trifluoromethyl)-1H-pyrazol-5-yl]oxy}-2-oxopyrrolidin-1-yl)bicyclo[1.1.1]pentan-1-yl]acetamide], > 2000 nM.
Consider `O=C(COc1ccc(Cl)c(F)c1)NC12CC(N3CCN(c4ccc(Cl)c(F)c4)C3=O)(C1)C2` [Compound 108, 2-(4-chloro-3-fluorophenoxy)-N-{3-[3-(4-chloro-3-fluorophenyl)-2-oxoimidazolidin-1-yl]bicyclo[1.1.1]pentan-1-yl}acetamide], for which, where the note is “Homo sapiens, HEK-293T”, the EC50 was < 50 nM.
Still for that read-out and setting: for `O=C(COc1ccc(Cl)c(F)c1)NC12CCC(N3CC(c4ccc(Cl)c(F)c4)=CC3=O)(CC1)C[C@@H]2O` [Compound 109, 2-(4-chloro-3-fluorophenoxy)-N-{(2S)-4-[4-(4-chloro-3-fluorophenyl)-2-oxo-2,5-dihydro-1H-pyrrol-1-yl]-2-hydroxybicyclo[2.2.2]octan-1-yl}acetamide] the value was < 50 nM; for `O=C(COc1ccc(Cl)c(F)c1)NC12CC(N3C(=O)OC[C@@H]3c3ccc(Cl)c(Cl)c3)(C1)C2` [Compound 110, 2-(4-chloro-3-fluorophenoxy)-N-{3-[(4S)-4-(3,4-dichlorophenyl)-2-oxo-1,3-oxazolidin-3-yl]bicyclo[1.1.1]pentan-1-yl}acetamide], > 2000 nM.
For `O=C(COc1ccc(Cl)c(Cl)c1)NC12CC(N3CCN(Cc4ccc(Cl)cc4)C3=O)(C1)C2` [Compound 111, N-(3-{3-[(4-chlorophenyl)methyl]-2-oxoimidazolidin-1-yl}bicyclo[1.1.1]pentan-1-yl)-2-(3,4-dichlorophenoxy)acetamide], the half-maximal effective concentration (EC50) (Homo sapiens, HEK-293T) is > 2000 nM.
Same read-out and setting: for `O=C(COc1ccc(Cl)c(F)c1)NC12CC(N3CCC(c4ccc(F)c(F)c4)OC3=O)(C1)C2` (stereo not drawn) [Compound 112, 2-(4-chloro-3-fluorophenoxy)-N-{3-[6-(3,4-difluorophenyl)-2-oxo-1,3-oxazinan-3-yl]bicyclo[1.1.1]pentan-1-yl}acetamide] the value was > 2000 nM; for `O=C(COc1ccc(Cl)c(F)c1)NC12CC(C3=NC(c4ccc(Cl)cc4)CO3)(C1)C2` (stereo not drawn) [Compound 113, 2-(4-chloro-3-fluorophenoxy)-N-{3-[4-(4-chlorophenyl)-4,5-dihydro-1,3-oxazol-2-yl]bicyclo[1.1.1]pentan-1-yl}acetamide], 250 to 1000 nM.
Consider `O=C(COc1ccc(Cl)c(F)c1)NC12CC(N3CCN(c4ccc(Cl)cc4)C3=O)(C1)C2` [Compound 114, 2-(4-chloro-3-fluorophenoxy)-N-{3-[3-(4-chlorophenyl)-2-oxoimidazolidin-1-yl]bicyclo[1.1.1]pentan-1-yl}acetamide], for which the EC50 (Homo sapiens, HEK-293T) is < 50 nM.
On to `O=C(COc1ccc(Cl)c(F)c1)NC12CC(N3CCN(c4ccccc4)C3=O)(C1)C2` [Compound 115, 2-(4-chloro-3-fluorophenoxy)-N-[3-(2-oxo-3-phenylimidazolidin-1-yl)bicyclo[1.1.1]pentan-1-yl]acetamide], for which the half-maximal effective concentration (EC50) (Homo sapiens, HEK-293T) was 250 to 1000 nM.
For the compound `O=C(COc1ccc(Cl)c(F)c1)NC12CC(N3CC(c4ccc(Cl)c(F)c4)OC3=O)(C1)C2` (stereo not drawn) [Compound 116, 2-(4-chloro-3-fluorophenoxy)-N-{3-[5-(4-chloro-3-fluorophenyl)-2-oxo-1,3-oxazolidin-3-yl]bicyclo[1.1.1]pentan-1-yl}acetamide], the half-maximal effective concentration (EC50) (Homo sapiens, HEK-293T) lay within 50 to 250 nM.
On to `O=C(COc1ccc(F)c(Cl)c1)NC12CC(N3Cc4ccccc4C3=O)(C1)C2` [Compound 117, 2-(3-chloro-4-fluorophenoxy)-N-[3-(1-oxo-1,3-dihydro-2H-isoindol-2-yl)bicyclo[1.1.1]pentan-1-yl]acetamide], for which the concentration for a half-maximal effect (EC50) (Homo sapiens, HEK-293T) fell in the range of 50 to 250 nM.
For `O=C(CCOc1ccc(Cl)cc1)N[C@H]1CC[C@H](N2CCN(c3cnc(C(F)F)cn3)C2=O)CC1` [Compound 118, 3-(4-chlorophenoxy)-N-[(1r,4r)-4-{3-[5-(difluoromethyl)pyrazin-2-yl]-2-oxoimidazolidin-1-yl}cyclohexyl]propanamide], for the setting “Homo sapiens, HEK-293T”, the half-maximal effective concentration (EC50) is > 2000 nM.
As to `O=C(CCOc1ccc(Cl)c(F)c1)N[C@H]1CC[C@H](N2CCN(c3cnc(C(F)F)cn3)C2=O)CC1` [Compound 119, 3-(4-chloro-3-fluorophenoxy)-N-[(1r,4r)-4-{3-[5-(difluoromethyl)pyrazin-2-yl]-2-oxoimidazolidin-1-yl}cyclohexyl]propanamide], under “Homo sapiens, HEK-293T”, the EC50 was 250 to 1000 nM.
Still for that read-out and setting: for `O=C(COc1ccc(Cl)c(Cl)c1)N[C@H]1CC[C@H](N2CCN(c3cnc(C(F)F)cn3)C2=O)CC1` [Compound 120, 2-(3,4-dichlorophenoxy)-N-[(1r,4r)-4-{3-[5-(difluoromethyl)pyrazin-2-yl]-2-oxoimidazolidin-1-yl}cyclohexyl]acetamide] the value was < 50 nM.
